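48-hour exposure; five concentrations; linearly interpolated endpoints. At the GI50, growth is halved.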 Activity calls are given as the source filed them. Cut-off read from the data, not from the text of the source: active = GI50 up to about 1.1 µM and inactive = higher.
Assays:
Assay in all cases: NCI-60 cell line screen, 48 h
UACC-62 = test system: UACC-62
RXF 631 = test system: RXF 631
HCT-15 = test system: HCT-15
M19-MEL = test system: M19-MEL
OVCAR-8 = test system: OVCAR-8
SNB-78 = test system: SNB-78
UACC-257 = test system: UACC-257
DMS-273 = test system: DMS-273
A549 = test system: A549
EKVX = test system: EKVX
KM12 = test system: KM12
SN12C = test system: SN12C
DLD-1 = test system: DLD-1
CAKI-1 = test system: CAKI-1
SF-539 = test system: SF-539
HOP-92 = test system: HOP-92
SNB-19 = test system: SNB-19
KM-20L2 = test system: KM-20L2
NCI-H226 = test system: NCI-H226
UO-31 = test system: UO-31
OVCAR-4 = test system: OVCAR-4
LOX IMVI = test system: LOX IMVI
786-0 = test system: 786-0
OVCAR-3 = test system: OVCAR-3
COLO 205 = test system: COLO 205
Malme-3M = test system: Malme-3M
TK-10 = test system: TK-10
NCI-H460 = test system: NCI-H460
XF498 = test system: XF498
HOP-62 = test system: HOP-62
OVCAR-5 = test system: OVCAR-5
SF-268 = test system: SF-268
HL-60 = test system: HL-60
NCI-H522 = test system: NCI-H522
SF-295 = test system: SF-295
SK-MEL-28 = test system: SK-MEL-28
LXFL 529 = test system: LXFL 529
A498 = test system: A498
DMS-114 = test system: DMS-114
ACHN = test system: ACHN
HOP-18 = test system: HOP-18
U-251 = test system: U-251
CCRF-CEM = test system: CCRF-CEM
SK-OV-3 = test system: SK-OV-3
MOLT-4 = test system: MOLT-4
RPMI-8226 = test system: RPMI-8226
SW-620 = test system: SW-620
IGROV-1 = test system: IGROV-1
HCT-116 = test system: HCT-116
K562 = test system: K562
SK-MEL-2 = test system: SK-MEL-2
HCC 2998 = test system: HCC 2998
NCI-H23 = test system: NCI-H23
M14 = test system: M14
HT-29 = test system: HT-29
SK-MEL-5 = test system: SK-MEL-5
SNB-75 = test system: SNB-75
RXF 393 = test system: RXF 393

SMILES: CCOC(=O)C12CCCC1(O)N(NC(=O)OC)C(C)=C2C(=O)OC (stereo not given)
- GI50 (UACC-62): > 100 µM (inactive)
- GI50 (RXF 631): > 100 µM (inactive)
- GI50 (HCT-15): > 100 µM
- GI50 (M19-MEL): > 100 µM (inactive)
- GI50 (OVCAR-8): > 100 µM (inactive)
- GI50 (SNB-78): > 100 µM (inactive)
- GI50 (UACC-257): > 100 µM (inactive)
- GI50 (DMS-273): > 100 µM (inactive)
- GI50 (A549): > 100 µM (inactive)
- GI50 (EKVX): > 100 µM (inactive)
- GI50 (KM12): > 10 µM (inactive)
- GI50 (SN12C): > 100 µM (inactive)
- GI50 (DLD-1): > 100 µM (inactive)
- GI50 (CAKI-1): > 100 µM (inactive)
- GI50 (SF-539): > 100 µM (inactive)
- GI50 (HOP-92): > 100 µM (inactive)
- GI50 (SNB-19): > 100 µM (inactive)
- GI50 (KM-20L2): > 100 µM (inactive)
- GI50 (NCI-H226): > 100 µM (inactive)
- GI50 (UO-31): > 100 µM (inactive)
- GI50 (OVCAR-4): > 100 µM (inactive)
- GI50 (LOX IMVI): > 100 µM (inactive)
- GI50 (786-0): 20.4 µM (inactive)
- GI50 (OVCAR-3): > 10 µM (inactive)
- GI50 (COLO 205): > 100 µM (inactive)
- GI50 (Malme-3M): > 100 µM (inactive)
- GI50 (TK-10): > 100 µM (inactive)
- GI50 (NCI-H460): > 100 µM (inactive)
- GI50 (XF498): > 100 µM (inactive)
- GI50 (HOP-62): > 100 µM (inactive)
- GI50 (OVCAR-5): > 100 µM (inactive)
- GI50 (SF-268): > 100 µM (inactive)
- GI50 (HL-60): > 100 µM (inactive)
- GI50 (NCI-H522): > 100 µM (inactive)
- GI50 (SF-295): > 10 µM (inactive)
- GI50 (SK-MEL-28): > 100 µM (inactive)
- GI50 (LXFL 529): > 100 µM (inactive)
- GI50 (A498): > 100 µM (inactive)
- GI50 (DMS-114): > 100 µM (inactive)
- GI50 (ACHN): > 100 µM (inactive)
- GI50 (HOP-18): > 100 µM (inactive)
- GI50 (U-251): > 100 µM (inactive)
- GI50 (CCRF-CEM): > 100 µM (inactive)
- GI50 (SK-OV-3): > 100 µM (inactive)
- GI50 (MOLT-4): > 100 µM (inactive)
- GI50 (RPMI-8226): > 100 µM (inactive)
- GI50 (SW-620): > 100 µM (inactive)
- GI50 (IGROV-1): > 100 µM (inactive)
- GI50 (HCT-116): > 100 µM (inactive)
- GI50 (K562): > 100 µM (inactive)
- GI50 (SK-MEL-2): 14.1 µM (inactive)
- GI50 (HCC 2998): > 100 µM (inactive)
- GI50 (NCI-H23): > 100 µM (inactive)
- GI50 (M14): > 100 µM (inactive)
- GI50 (HT-29): > 100 µM (inactive)

SMILES: O=C(CCc1nnc2s/c(=C\c3ccccc3[N+](=O)[O-])c(=O)n12)Nc1cc(Cl)c(Cl)cc1Cl
- GI50 (UACC-62): 40.4 µM (inactive)
- GI50 (RXF 631): 47.1 µM (inactive)
- GI50 (HCT-15): 40.4 µM
- GI50 (M19-MEL): 43.2 µM (inactive)
- GI50 (OVCAR-8): 25.9 µM (inactive)
- GI50 (SNB-78): 35.2 µM (inactive)
- GI50 (SK-MEL-5): 34.1 µM (inactive)
- GI50 (UACC-257): 63.4 µM (inactive)
- GI50 (DMS-273): 54.3 µM (inactive)
- GI50 (A549): 30.5 µM (inactive)
- GI50 (EKVX): 37.9 µM (inactive)
- GI50 (SNB-75): 20.5 µM (inactive)
- GI50 (KM12): 19.5 µM (inactive)
- GI50 (SN12C): 24.6 µM (inactive)
- GI50 (DLD-1): 25.2 µM (inactive)
- GI50 (SF-539): 21.1 µM (inactive)
- GI50 (HOP-92): 18.7 µM (inactive)
- GI50 (SNB-19): 30.1 µM (inactive)
- GI50 (KM-20L2): 54 µM (inactive)
- GI50 (NCI-H226): 16.4 µM (inactive)
- GI50 (UO-31): 31.6 µM (inactive)
- GI50 (OVCAR-4): 14.7 µM (inactive)
- GI50 (LOX IMVI): 20.8 µM (inactive)
- GI50 (786-0): 17.1 µM (inactive)
- GI50 (OVCAR-3): 18.2 µM (inactive)
- GI50 (COLO 205): 83.4 µM (inactive)
- GI50 (Malme-3M): 48.2 µM (inactive)
- GI50 (TK-10): 37.1 µM (inactive)
- GI50 (NCI-H460): 27.4 µM (inactive)
- GI50 (XF498): 22.6 µM (inactive)
- GI50 (HOP-62): 23.1 µM (inactive)
- GI50 (OVCAR-5): 34.1 µM (inactive)
- GI50 (SF-268): 26.5 µM (inactive)
- GI50 (NCI-H522): 38.3 µM (inactive)
- GI50 (SF-295): 18.7 µM (inactive)
- GI50 (SK-MEL-28): 92.9 µM (inactive)
- GI50 (LXFL 529): 21.8 µM (inactive)
- GI50 (A498): 20.4 µM (inactive)
- GI50 (RXF 393): 22 µM (inactive)
- GI50 (DMS-114): 49.3 µM (inactive)
- GI50 (ACHN): 35.8 µM (inactive)
- GI50 (HOP-18): 18.3 µM (inactive)
- GI50 (U-251): 16.9 µM (inactive)
- GI50 (CCRF-CEM): 24.4 µM (inactive)
- GI50 (SK-OV-3): 56.6 µM (inactive)
- GI50 (MOLT-4): 21 µM (inactive)
- GI50 (SW-620): > 10 µM (inactive)
- GI50 (IGROV-1): 69.5 µM (inactive)
- GI50 (HCT-116): 17.5 µM (inactive)
- GI50 (K562): 22 µM (inactive)
- GI50 (SK-MEL-2): 92.7 µM (inactive)
- GI50 (HCC 2998): 38.5 µM (inactive)
- GI50 (NCI-H23): 33.2 µM (inactive)
- GI50 (M14): 32.5 µM (inactive)
- GI50 (HT-29): 35.2 µM (inactive)

— ChEMBL document CHEMBL1201862, “PubChem BioAssay data set” (2004)
